For twelve molecules, IC50 results are on record in ChEMBL document CHEMBL1141196, “Grafting aminocyclopentane carboxylic acids onto the RGD tripeptide sequence generates low nanomolar alphaVbeta3/alphaVbeta5 integrin dual binders” (J Med Chem, 2005).

The target of one assay is Integrin alpha-V/beta-3 (Homo sapiens, UniProt P05106+P06756). Briefly: Displacement of [125I]-echistatin from alphavbeta3 integrin receptor. Format: protein-complex assay. For orientation: In a radioligand displacement assay an active substance lowers the binding of a labelled ligand.
Chain of Integrin alpha-V/beta-3 (P05106 27-788 limits assumed): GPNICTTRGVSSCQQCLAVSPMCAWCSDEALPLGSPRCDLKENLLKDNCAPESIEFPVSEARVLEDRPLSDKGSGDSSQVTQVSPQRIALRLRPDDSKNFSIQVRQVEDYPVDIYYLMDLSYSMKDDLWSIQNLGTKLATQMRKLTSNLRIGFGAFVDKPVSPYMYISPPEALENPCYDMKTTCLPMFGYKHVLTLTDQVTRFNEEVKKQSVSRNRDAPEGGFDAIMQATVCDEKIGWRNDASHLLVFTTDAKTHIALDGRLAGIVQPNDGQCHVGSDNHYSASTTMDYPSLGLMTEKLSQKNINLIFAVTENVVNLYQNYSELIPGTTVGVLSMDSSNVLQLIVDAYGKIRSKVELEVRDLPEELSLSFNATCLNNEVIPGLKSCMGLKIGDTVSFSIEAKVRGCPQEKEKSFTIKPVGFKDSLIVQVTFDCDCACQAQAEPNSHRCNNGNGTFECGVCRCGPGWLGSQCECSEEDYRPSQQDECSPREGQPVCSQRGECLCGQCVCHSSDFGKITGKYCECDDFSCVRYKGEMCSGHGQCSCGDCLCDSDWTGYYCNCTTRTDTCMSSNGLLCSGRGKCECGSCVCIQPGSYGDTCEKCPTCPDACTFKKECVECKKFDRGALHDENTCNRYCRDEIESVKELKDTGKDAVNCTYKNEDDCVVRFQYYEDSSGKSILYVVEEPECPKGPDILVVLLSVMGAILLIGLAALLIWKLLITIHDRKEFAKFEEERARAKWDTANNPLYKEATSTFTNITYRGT
Chain of Integrin alpha-V/beta-3 (P06756 31-889 limits assumed): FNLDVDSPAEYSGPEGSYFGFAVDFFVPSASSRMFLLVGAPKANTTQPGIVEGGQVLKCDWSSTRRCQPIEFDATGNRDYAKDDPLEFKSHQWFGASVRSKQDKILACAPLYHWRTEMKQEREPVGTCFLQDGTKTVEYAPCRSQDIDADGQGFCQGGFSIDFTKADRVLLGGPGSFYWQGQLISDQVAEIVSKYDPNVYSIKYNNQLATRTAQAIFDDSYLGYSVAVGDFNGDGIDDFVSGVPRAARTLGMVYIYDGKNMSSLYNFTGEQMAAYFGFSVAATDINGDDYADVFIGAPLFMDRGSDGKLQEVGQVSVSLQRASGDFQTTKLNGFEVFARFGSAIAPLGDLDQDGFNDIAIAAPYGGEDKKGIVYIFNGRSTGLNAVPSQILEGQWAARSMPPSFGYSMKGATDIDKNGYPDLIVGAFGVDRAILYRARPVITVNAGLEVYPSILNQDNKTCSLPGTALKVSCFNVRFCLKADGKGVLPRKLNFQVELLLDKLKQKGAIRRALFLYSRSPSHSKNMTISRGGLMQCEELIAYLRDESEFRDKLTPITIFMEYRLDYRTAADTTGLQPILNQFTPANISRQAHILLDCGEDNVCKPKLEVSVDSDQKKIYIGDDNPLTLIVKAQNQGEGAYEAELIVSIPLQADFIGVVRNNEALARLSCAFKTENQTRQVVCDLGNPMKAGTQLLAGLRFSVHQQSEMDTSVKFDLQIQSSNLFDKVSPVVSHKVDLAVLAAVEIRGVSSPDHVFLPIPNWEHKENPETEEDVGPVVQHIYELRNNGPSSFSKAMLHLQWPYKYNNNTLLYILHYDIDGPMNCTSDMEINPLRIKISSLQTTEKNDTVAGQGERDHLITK
Chain of Integrin alpha-V/beta-3 (P06756 891-1048 limits assumed): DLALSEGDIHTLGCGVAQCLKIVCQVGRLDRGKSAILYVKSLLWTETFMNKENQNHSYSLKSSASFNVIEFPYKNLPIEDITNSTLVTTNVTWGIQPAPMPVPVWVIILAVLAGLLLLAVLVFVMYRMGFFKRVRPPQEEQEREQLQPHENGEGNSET
Another assay addresses Integrin alpha-V/beta-5 (Homo sapiens, UniProt P06756+P18084). Briefly: Displacement of [125I]-echistatin from alpha-v-beta-5 integrin receptor. Format: protein-complex assay.

For orientation: IC50 means the midpoint of a concentration-inhibition curve. A low value points to inhibition by little substance.

Chain of Integrin alpha-V/beta-5 (P06756 31-889 limits assumed): as the sequence (P06756 31-889 limits assumed) above
Chain of Integrin alpha-V/beta-5 (P06756 891-1048 limits assumed): as the sequence (P06756 891-1048 limits assumed) above
Chain of Integrin alpha-V/beta-5 (P18084 24-799 limits assumed): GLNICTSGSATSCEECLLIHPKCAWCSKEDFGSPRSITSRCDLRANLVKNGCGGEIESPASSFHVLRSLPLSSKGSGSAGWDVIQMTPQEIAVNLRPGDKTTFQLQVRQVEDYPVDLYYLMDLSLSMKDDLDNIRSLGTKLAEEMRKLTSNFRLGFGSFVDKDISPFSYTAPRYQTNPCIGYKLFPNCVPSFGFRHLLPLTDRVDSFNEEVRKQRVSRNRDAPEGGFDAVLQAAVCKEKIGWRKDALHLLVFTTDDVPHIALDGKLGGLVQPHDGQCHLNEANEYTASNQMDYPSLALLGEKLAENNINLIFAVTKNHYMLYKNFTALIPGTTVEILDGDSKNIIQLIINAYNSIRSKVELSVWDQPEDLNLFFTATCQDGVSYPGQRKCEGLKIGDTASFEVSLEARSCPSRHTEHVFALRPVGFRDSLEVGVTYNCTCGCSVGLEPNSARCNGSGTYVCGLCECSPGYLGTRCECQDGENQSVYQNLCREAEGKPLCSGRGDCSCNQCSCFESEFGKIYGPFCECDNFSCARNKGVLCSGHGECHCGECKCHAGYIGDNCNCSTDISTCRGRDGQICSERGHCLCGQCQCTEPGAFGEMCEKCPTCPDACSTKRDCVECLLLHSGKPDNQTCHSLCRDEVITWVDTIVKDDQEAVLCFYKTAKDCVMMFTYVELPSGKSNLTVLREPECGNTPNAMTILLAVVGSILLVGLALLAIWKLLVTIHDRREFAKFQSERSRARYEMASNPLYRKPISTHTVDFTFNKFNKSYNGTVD

As for `N=C(N)NCCC[C@@H]1NC(=O)[C@@H]2CC[C@H](C2)NC(=O)[C@H](CC(=O)O)NC(=O)CNC1=O`, the concentration for half-maximal inhibition (IC50) came out at 1.5 nM on Integrin alpha-V/beta-3 and 0.59 nM on Integrin alpha-V/beta-5.

In the case of `N=C(N)NCCC[C@@H]1NC(=O)[C@@H]2C[C@H](NC(=O)[C@H](CC(=O)O)NC(=O)CNC1=O)[C@@H](O)C2`, the IC50 at Integrin alpha-V/beta-3 came to 5.6 nM; on Integrin alpha-V/beta-5, 4.56 nM.

Take `N=C(N)NCCC[C@@H]1NC(=O)[C@H]2C[C@H](NC(=O)[C@H](CC(=O)O)NC(=O)CNC1=O)[C@@H](O)C2`: the figures for the IC50 on Integrin alpha-V/beta-3 and on Integrin alpha-V/beta-5 were 35.6 nM and 29.6 nM, respectively.

Consider `N=C(N)NCCC[C@@H]1NC(=O)[C@@H]2C[C@H](NC(=O)[C@H](CC(=O)O)NC(=O)CNC1=O)[C@@H](O)[C@H]2O`, for which the IC50 on Integrin alpha-V/beta-3 was 51.4 nM; at Integrin alpha-V/beta-5 it was 166 nM.

For the molecule `N=C(N)NCCC[C@@H]1NC(=O)[C@H]2C[C@@H](NC(=O)[C@H](CC(=O)O)NC(=O)CNC1=O)[C@H](O)[C@H]2O`, the IC50 was found to be 133 nM on Integrin alpha-V/beta-3 and 411 nM at Integrin alpha-V/beta-5.

As to `N=C(N)NCCC[C@@H]1NC(=O)[C@H]2CC[C@H](C2)NC(=O)[C@H](CC(=O)O)NC(=O)CNC1=O`, the IC50 on Integrin alpha-V/beta-3 was 4.6 nM; at Integrin alpha-V/beta-5, 3.43 nM.

For the molecule `NC(N)=NCCC[C@@H]1NC(=O)[C@H]2CC[C@@H]3CCC[C@H](NC(=O)[C@H](CC(=O)O)NC(=O)CNC1=O)C(=O)N32`, the half-inhibitory concentration (IC50) at Integrin alpha-V/beta-3 amounted to 1.4 nM; at Integrin alpha-V/beta-5 it was 1.16 nM.

In the case of `N=C(N)NCCC[C@@H]1NC(=O)[C@@H]2C[C@@H](O)[C@@H](C2)NC(=O)[C@H](CC(=O)O)NC(=O)CNC1=O`, the IC50 on Integrin alpha-V/beta-3 came to 7.2 nM; at Integrin alpha-V/beta-5, 13.1 nM.

As for `N=C(N)NCCC[C@@H]1NC(=O)[C@H]2CC[C@@H](C2)NC(=O)[C@H](CC(=O)O)NC(=O)CNC1=O`, the IC50 on Integrin alpha-V/beta-3 is 9.93 nM; on Integrin alpha-V/beta-5, 26 nM.

Take `N=C(N)NCCC[C@@H]1NC(=O)[C@H]2C[C@@H](NC(=O)[C@H](CC(=O)O)NC(=O)CNC1=O)[C@H](O)[C@@H]2O`: the figures for the IC50 at Integrin alpha-V/beta-3 and at Integrin alpha-V/beta-5 were 713 nM and 1300 nM, respectively.

Take `N=C(N)NCCC[C@@H]1NC(=O)[C@@H]2C[C@H](NC(=O)[C@H](CC(=O)O)NC(=O)CNC1=O)[C@@H](O)[C@@H]2O`: the results for the half-inhibitory concentration (IC50) at Integrin alpha-V/beta-3 and at Integrin alpha-V/beta-5 were 44.7 nM and 125 nM, respectively.

For the molecule `N=C(N)NCCC[C@@H]1NC(=O)[C@@H]2CC[C@@H](C2)NC(=O)[C@H](CC(=O)O)NC(=O)CNC1=O`, the IC50 at Integrin alpha-V/beta-3 is 7.7 nM; on Integrin alpha-V/beta-5 it was 6.56 nM.
